From patent US20090081197A1 (Palatin Technologies, Inc., priority 2007, published 2009)
pEC50: −log10 of the molar value.

Legend:
MC4-R [1] = molecular target: T1, MC4-R (Homo sapiens, UniProt P32245); assay: cAMP agonist stimulation, low receptor density system (0.1 ng/mL doxycycline); details: 0.1 ng/mL doxycycline, low receptor density hMC4-R system; NDP-α-MSH maximal cAMP = 1.0
[2] = IP (and IN) food intake, mice; assay type: in vivo; details: mouse, IP, 4 hours, read-out: maximal decrease in food intake
Protocol: IV and IP food intake and body weight change. Change in food intake and body weight was evaluated for selected compounds. Male Sprague-Dawley rats or male C57BL/6 mice were utilized. Animals were individually housed in conventional plexiglass hanging cages and maintained on a controlled 12 hour on/off light cycle. Water and powdered (LabDiet, 5P00 Prolab RMH 3000) or pelleted (Harlan Teklad 2018 18% Protein Rodent Diet) food was provided ad libitum. For 1 week before treatment, 24-hour food intake and body weight change was recorded to assess a baseline for the group during vehicle treatment. The rats were dosed IV with vehicle or selected compounds (0.5-3 mg/kg, and in some cases up to 10 mg/Kg) or dosed intraperitoneally (IP) with vehicle or selected compounds (0.5-10 mg/kg, and in some cases up to 50 mg/kg). Mice were dosed IP. […] The changes in body weight and food intake for the 48 hour and 72 hour periods after dosing were also measured to determined reversal of changes in body weight and food intake effects back to baseline levels.

MC4-R [3] = molecular target: T1, MC4-R; assay: cAMP functional activity assay in HEK-293 cells, normal system; assay type: cell-based; design: expressed in transfected cells; host or cells: HEK-293; details: for intrinsic activity at MC4-R in a normal system: NDP-α-MSH = 1.0; for functional status at MC4-R in cAMP assay: normal system, 1 μM concentration where stated
MC1-R = molecular target: T2, MC1-R (Mus musculus, UniProt Q01727); assay: Competitive inhibition assay using [I^125]-NDP-α-MSH, B-16 mouse melanoma cell membranes; assay type: binding; details: for inhibition at 1 µM: 1 μM test compound, read-out: Inhibition at 1 μM (NDP-α-MSH) In Normal System, MC1-R; for Ki: read-out: Ki (nM) (NDP-α-MSH) In Normal System, MC1-R
T2 construct: B-16 mouse melanoma cells (containing MC1-R); endogenous in cells
T2 sequence (Q01727 whole entry): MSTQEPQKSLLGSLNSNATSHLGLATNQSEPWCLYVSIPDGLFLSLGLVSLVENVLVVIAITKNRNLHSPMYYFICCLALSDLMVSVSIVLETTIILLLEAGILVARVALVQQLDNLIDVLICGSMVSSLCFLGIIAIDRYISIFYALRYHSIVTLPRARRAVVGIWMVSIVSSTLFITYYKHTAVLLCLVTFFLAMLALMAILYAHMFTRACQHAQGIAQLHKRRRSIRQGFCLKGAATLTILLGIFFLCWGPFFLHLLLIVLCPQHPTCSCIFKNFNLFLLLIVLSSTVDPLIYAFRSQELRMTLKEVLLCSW
Outline: (§1)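 Tracer was 0.4 nM for MC3-R and MC5-R, 0.2 nM for MC4-R and 0.1 nM for MC1-R. Bound radioactivity was gamma-counted after filtration; values are triplicate means, with results below 0% reported as 0%.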

MC4-R [4] = molecular target: T1, MC4-R; assay: cAMP agonist stimulation, high receptor density system (10 ng/mL doxycycline); details: for Efficacy/Intrinsic Activity: 10 ng/mL doxycycline, high receptor density hMC4-R system, NDP-α-MSH maximal cAMP = 1.0
MC5-R = MC5-R (Homo sapiens, UniProt P33032); assay: Competitive inhibition assay using [I^125]-NDP-α-MSH, hMC5-R membranes; assay type: binding; design: expressed in transfected cells; details: for inhibition at 1 µM: 1 μM test compound, read-out: Inhibition at 1 μM (NDP-α-MSH) In Normal System, MC5-R
Sequence of MC5-R (P33032 whole entry): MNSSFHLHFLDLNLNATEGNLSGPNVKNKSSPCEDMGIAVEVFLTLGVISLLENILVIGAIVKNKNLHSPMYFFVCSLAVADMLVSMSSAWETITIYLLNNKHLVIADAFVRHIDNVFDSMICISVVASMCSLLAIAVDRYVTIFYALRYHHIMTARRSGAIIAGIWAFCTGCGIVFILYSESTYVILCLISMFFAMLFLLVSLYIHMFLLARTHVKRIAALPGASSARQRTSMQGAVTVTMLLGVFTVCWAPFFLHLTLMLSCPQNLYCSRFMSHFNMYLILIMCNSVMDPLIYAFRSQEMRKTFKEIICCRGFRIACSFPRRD
Outline: as §1

[5] = Penile erection induction in male rats; assay type: in vivo; details: rat
Outline: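 Male Sprague-Dawley rats (200-250 g), groups of 4-8, dosed IV or ICV at various doses and observed individually for penile erections. Only statistically relevant increases over vehicle-control mean PEs count as induction; IV responses below 1.0 PEs/rat treated as equivocal, some retested ICV.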

MC4-R [6] = molecular target: T1, MC4-R; assay: Competitive inhibition assay using [I^125]-NDP-α-MSH, hMC4-R membranes; assay type: binding; design: host or cells: TREx-293 (HEK-293 stably expressing Tet repressor); details: for inhibition at 1 µM: 1 μM test compound, read-out: Inhibition at 1 μM (NDP-α-MSH) In Normal System, MC4-R
Outline: as §1

MC3-R = MC3-R (Homo sapiens, UniProt P41968); assay: Competitive inhibition assay using [I^125]-NDP-α-MSH, hMC3-R membranes; assay type: binding; design: expressed in transfected cells; details: for inhibition at 1 µM: 1 μM test compound, read-out: Inhibition at 1 μM (NDP-α-MSH) In Normal System, MC3-R
Sequence of MC3-R (P41968 whole entry): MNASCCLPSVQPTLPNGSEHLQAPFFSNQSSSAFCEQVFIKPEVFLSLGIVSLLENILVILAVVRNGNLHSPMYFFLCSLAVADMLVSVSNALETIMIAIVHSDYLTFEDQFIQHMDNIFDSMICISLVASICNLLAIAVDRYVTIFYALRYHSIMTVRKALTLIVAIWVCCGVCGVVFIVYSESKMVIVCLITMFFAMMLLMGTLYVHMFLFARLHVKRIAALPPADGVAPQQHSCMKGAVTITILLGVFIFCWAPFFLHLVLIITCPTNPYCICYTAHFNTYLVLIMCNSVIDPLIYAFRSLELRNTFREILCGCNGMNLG
Outline: as §1

T1 sequence (P32245 whole entry): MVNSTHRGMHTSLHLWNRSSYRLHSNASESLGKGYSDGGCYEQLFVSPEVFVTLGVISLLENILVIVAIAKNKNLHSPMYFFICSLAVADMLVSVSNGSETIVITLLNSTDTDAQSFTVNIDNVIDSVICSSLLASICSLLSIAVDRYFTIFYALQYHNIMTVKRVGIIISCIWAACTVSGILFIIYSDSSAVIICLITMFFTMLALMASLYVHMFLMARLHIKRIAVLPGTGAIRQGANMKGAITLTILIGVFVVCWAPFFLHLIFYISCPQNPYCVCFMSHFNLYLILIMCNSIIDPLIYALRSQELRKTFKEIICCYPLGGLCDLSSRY

SMILES	Efficacy/Intrinsic Activity (MC4-R [1])	inhibition in vivo at 3 mg/kg [2] [%]	inhibition in vivo at 10 mg/kg [2] [%]	intrinsic activity at MC4-R in a normal system (MC4-R [3]; normal receptor density system)	functional status at MC4-R in cAMP assay (MC4-R [3])	inhibition at 1 µM (MC1-R) [%]	Ki (MC1-R) [nM]	pEC50 (MC4-R [4])	Efficacy/Intrinsic Activity (MC4-R [4])	inhibition at 1 µM (MC5-R) [%]	Penile Erection IV ([5]; IV)	penile erection response ([5]; IV, 1 and 3 mg/kg)	inhibition at 1 µM (MC4-R [6]) [%]	inhibition at 1 µM (MC3-R) [%]	also measured
Cc1ccc(C[C@@H](N)C(=O)N2C[C@@H](C)N(CCc3ccc4ccccc4c3)C[C@@H]2CCCNC(=N)N)c(C)c1 [Example 27, N-{3-[1-[2(R)-Amino-3-(2,4-dimethyl-phenyl)-propionyl]-5(R)-methyl-4-(2-naphthalen-2-yl-ethyl)-piperazin-2(S)-yl]-propyl}-guanidine]	None	47	88	0.2	partial agonist (intrinsic activity between 0.1 (10%) and 0.7 (70%) is classified as a partial agonist)	9	1230	6.89	0.61	59	No	no penile erections	100	62	Penile Erection ICV ([5]; ICV): No; penile erection response ([5]; ICV, 1 and 3 nmole): no penile erection response
CC(=O)N[C@H](Cc1ccc(C)cc1C)C(=O)N1C[C@@H](C)N(C(=O)Cc2ccc3ccccc3c2)C[C@@H]1CCCNC(=N)N [Example 30, N-{(R)-1-(2,4 dimethyl-benzyl)-2-[(2S,5R)-2-(3-guanidino-propyl)-5-methyl-4-(2-naphthalen-2-yl-acetyl)-piperazin-1-yl]-2-oxo-ethyl}-acetamide]	None	8	–	0.4	partial agonist (intrinsic activity between 0.1 (10%) and 0.7 (70%) is classified as a partial agonist)	–	1880	7.29	0.18	–	No	–	–	–	EC50 (MC4-R [3]; normal receptor density system): 9 nM; Ki (MC5-R; read-out: Ki (nM) (NDP-α-MSH) In Normal System, MC5-R): 250 nM; penile erection response ([5]; IV, 0.0003 to 0.03 mg/kg): no penile activity response; Ki (MC4-R [6]; read-out: Ki (nM) (NDP-α-MSH) In Normal System, MC4-R): 11 nM; Ki (MC3-R; read-out: Ki (nM) (NDP-α-MSH) In Normal System, MC3-R): 232 nM
Cc1cc(Cl)ccc1C[C@@H](N)C(=O)N1C[C@@H](C)N(CCc2ccc3ccccc3c2)C[C@@H]1CCCNC(=N)N [Example 26, N-{3-[1-[2(R)-Amino-3-(2-methyl, 4-chloro-phenyl)-propionyl]-5(R)-methyl-4-(2-naphthalen-2-yl-ethyl)-piperazin-2(S)-yl]-propyl}-guanidine]	None	44	86	0.3	partial agonist (intrinsic activity between 0.1 (10%) and 0.7 (70%) is classified as a partial agonist)	6	–	7.51	0.78	77	No	no penile erection	100	74	–
